Measured values as given in patent publication EP0054589B1, “Organic phosphoric acid ester derivatives, a process for preparing the same and insecticidal, miticidal or nematocidal compositions containing the same” (priority 1980, dated 1982).
Like-named read-outs stand apart in the source and are kept apart here.

Columns and labels:
[1] = system: rice stem borer; assay: Insecticidal effect on rice stem borer, 3rd-instar larvae (rice seedling dip); format: in vivo, Chilo suppressalis; settings: after 72 hours, 25°C
How it was run: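 Wettable-powder formulations were diluted in water to set concentrations, and rice seedlings were dipped in them. Ten 3rd-instar larvae were placed per capped cup with the treated seedlings and held at 25°C.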

[2] = system: tobacco cutworm; assay: Insecticidal effect on tobacco cutworm (cabbage leaf dip); format: in vivo, Prodenia litura; settings: after 48 hours, 25°C
How it was run: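 Cabbage leaves dipped in water-diluted emulsifiable concentrate (two formulations, tests A and B) and air-dried were fed to 3rd-instar tobacco cutworm larvae at 25°C. Percent mortality scored after 48 hours; 3 replicates of 30 insects per compound.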

[3] = system: tobacco cutworm; assay: Long-lasting insecticidal effect on tobacco cutworm (sprayed cabbage plantlet); format: in vivo, Prodenia litura; settings: concentration 500 (unit not given), mortality after 48 hours; for Percent Mortality After Application 3rd Day: leaves cut on 3rd day; for Percent Mortality After Application 5th Day: leaves cut on 5th day; for Percent Mortality After Application 7th Day: leaves cut on 7th day; for Percent Mortality After Application 10th Day: leaves cut on 10th day; for Percent Mortality After Application 15th Day: leaves cut on 15th day
How it was run: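 Cabbage plantlets sprayed with water-diluted emulsifiable concentrate and held in a greenhouse; leaves cut on days 3, 5, 7, 10 and 15 and fed to 3rd-instar larvae at 25°C. Percent mortality scored after 48 h; 3 replicates, 30 insects each.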

[4] = system: diamond back moth; assay: Insecticidal effect on diamond-back moth (cabbage leaf dip); format: in vivo, Plutella xylostella; settings: 100 ppm, after 72 hours, 25°C
Description: (§1) (A) An emulsifiable concentrate prepared as described in Formulation Example 1 was diluted with water to a predetermined concentration and leaves of a cabbage were dipped into the dilute emulsion for 10 seconds followed by drying in air, and charged in a 60 ml volume cup made of vinyl chloride resin. Then, thirty 3rd-instar larvae of diamond back moth were put in each cup, and the cups were kept at 25°C. After 72 hours, percent mortality was assessed and the test was replicated 3 times for each treatment.
as §1, with “(B) An” for “(A) An”, “Example 4” for “Example 1”

[5] = system: smaller tea tortrix; assay: Insecticidal effect on smaller tea tortrix (apple leaf dip); format: in vivo; settings: Adoxophyes orana, foliar; Table 9; 100 ppm; after 72 hours, 25°C; wettable powder as Formulation Example 5; read-out: Percent Mortality
Description: Leaves of an apple tree were dipped into a dilute water suspension of a wettable powder prepared as described in Formulation Example 5. After drying in air, the leaves were charged in a 60 ml volume cup made of vinyl chloride resin, and […] 3rd-instar larvae of smaller tea tortrix were put in each cup. The cups were capped and kept at 25°C. After 72 hours, the number of the surviving insects and the dead insects were recorded to determine percent mortality. In each treatment, 3 cups and 30 insects were used in total.

[6] = system: apple leaf miner; assay: Insecticidal effect on apple leaf miner (sprayed apple seedling); format: in vivo, Lithocolletis ringoniella; settings: Phyllonorycter ringoniella, 336 h, 500 ppm, fourteen days after spraying
Description: (§2) (A) A dilute water suspension of a wettable powder prepared as described in Formulation Example 5 was sufficiently sprayed using a spray-gun on a seedling of an apple tree planted in a bisque flower pot to which plant larvae of apple leaf miner just after hatching were parasitic. Thereafter the pots were placed in a green house. Fourteen days after the spraying, bores made by larvae were broken and percent mortality was assessed for all the leaves of each seedling. Three pots were used for each treatment.
as §2, with “(B)” for “(A)”, “7” for “5”

[7] = system: Apple; assay: Phytotoxicity on various crops; format: in vivo; set-up: key: Symbol — indicates that no toxicity was observed; settings: 500 ppm sprayed; checked visually after 10 days
How it was run: (§3)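 Test compounds, formulated as emulsifiable concentrates and brought to 500 ppm active in water, were sprayed onto the crops in sufficient amount. After ten days in the greenhouse, crop injury was inspected visually.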

[8] = system: Beet; assay: Phytotoxicity on various crops; format: in vivo; set-up: key: Symbol — indicates that no toxicity was observed; settings: 500 ppm sprayed; checked visually after 10 days
How it was run: as §3

[9] = system: Cabbage; assay: Phytotoxicity on various crops; format: in vivo; set-up: key: Symbol — indicates that no toxicity was observed; settings: 500 ppm sprayed; checked visually after 10 days
How it was run: as §3

[10] = system: Cotton; assay: Phytotoxicity on various crops; format: in vivo; set-up: key: Symbol — indicates that no toxicity was observed; settings: 500 ppm sprayed; checked visually after 10 days
How it was run: as §3

[11] = system: Cucumber; assay: Phytotoxicity on various crops; format: in vivo; set-up: key: Symbol — indicates that no toxicity was observed; settings: 500 ppm sprayed; checked visually after 10 days
How it was run: as §3

[12] = system: Green Pepper; assay: Phytotoxicity on various crops; format: in vivo; set-up: key: Symbol — indicates that no toxicity was observed; settings: 500 ppm sprayed; checked visually after 10 days
How it was run: as §3

[13] = system: Kidney Bean; assay: Phytotoxicity on various crops; format: in vivo; set-up: key: Symbol — indicates that no toxicity was observed; settings: 500 ppm sprayed; checked visually after 10 days
How it was run: as §3

[14] = system: Rice; assay: Phytotoxicity on various crops; format: in vivo; set-up: key: Symbol — indicates that no toxicity was observed; settings: 500 ppm sprayed; checked visually after 10 days
How it was run: as §3

[15] = system: Tea; assay: Phytotoxicity on various crops; format: in vivo; set-up: key: Symbol — indicates that no toxicity was observed; settings: 500 ppm sprayed; checked visually after 10 days
How it was run: as §3

[16] = system: Tomato; assay: Phytotoxicity on various crops; format: in vivo; set-up: key: Symbol — indicates that no toxicity was observed; settings: 500 ppm sprayed; checked visually after 10 days
How it was run: as §3

[17] = system: egg plant; assay: Phytotoxicity on various crops; format: in vivo; set-up: key: Symbol — indicates that no toxicity was observed; settings: 500 ppm sprayed; checked visually after 10 days
How it was run: as §3

[18] = Table 1, 100 ppm, wettable powder as Formulation Example 5
[19] = Table 1, 500 ppm, wettable powder as Formulation Example 5
[20] = Table 3, 500 ppm, emulsifiable concentrate as Formulation Example 1
[21] = Table 7, emulsifiable concentrate as Formulation Example 1
[22] = Table 10, wettable powder as Formulation Example 5, read-out: Percent Morality (%)
[23] = Table 2, 100 ppm, wettable powder as Formulation Example 7
[24] = Table 4, 100 ppm, emulsifiable concentrate as Formulation Example 3
[25] = Table 8, emulsifiable concentrate as Formulation Example 4

SMILES	Percent Mortality (%) [1, 18]	Percent Mortality (%) [1, 19]	Percent Mortality (%) [2, 20]	Percent Mortality (%) [4, 21]	mortality at 100 ppm [5]	mortality at 500 ppm [6, 22]	Phytotoxicity: Apple [7]	Phytotoxicity: Beet [8]	Phytotoxicity: Cabbage [9]	Phytotoxicity: Cotton [10]	Phytotoxicity: Cucumber [11]	Phytotoxicity: Green Pepper [12]	Phytotoxicity: Kidney Bean [13]	Phytotoxicity: Rice [14]	Phytotoxicity: Tea [15]	Phytotoxicity: Tomato [16]	Phytotoxicity: Egg Plant [17]	Percent Mortality (%) [1, 23]	Percent Mortality (%) [2, 24]	Percent Mortality (%) [4, 25]	other results
CCC(C)SP(=O)(OC)Oc1ccc2c(c1)OC(C)=CC2(C)C (centres unmarked) [Compound No. 16, O-methyl-S-sec-butyl-O-(2,4,4-trimethyl-1,4-benzopyran-7-yi) phosphorothioate]	100%	100%	100%	100%	100%	100%	—	—	—	—	—	—	—	—	—	—	—				Percent Mortality After Application 3rd Day ([3]; Table 5): 100%; Percent Mortality After Application 5th Day ([3]; Table 5): 100%; Percent Mortality After Application 7th Day ([3]; Table 5): 100%; Percent Mortality After Application 10th Day ([3]; Table 5): 100%; Percent Mortality After Application 15th Day ([3]; Table 5): 100%
CCOP(=O)(Oc1ccc2c(c1)OC(C)(C)C=C2C)SC(C)CC (centres unmarked) [Compound No. 18]	100%	100%	100%		100%	100%	—	—	—	—	—	—	—	—	—	—	—	100%	100%	83.3%	
CCCSP(=O)(OCC)Oc1ccc2c(c1)OC(C)CC2(C)C (centres unmarked) [compound 17]	100%	100%	100%	100%	100%		—	—	—	—	—	—	—	—	—	—	—	100%	100%	100%	Percent Mortality After Application 3rd Day ([3]; Table 5): 100%; Percent Mortality After Application 5th Day ([3]; Table 5): 100%; Percent Mortality After Application 7th Day ([3]; Table 5): 100%; Percent Mortality After Application 10th Day ([3]; Table 5): 100%; Percent Mortality After Application 15th Day ([3]; Table 5): 53.3%; Percent Mortality After Application 3rd Day ([3]; Table 6): 100%; Percent Mortality After Application 5th Day ([3]; Table 6): 100%; Percent Mortality After Application 7th Day ([3]; Table 6): 100%; Percent Mortality After Application 10th Day ([3]; Table 6): 93.3%; Percent Mortality After Application 15th Day ([3]; Table 6): 30%; Percent Mortality After Application Immediately after Application ([3]; Table 6): 100%
CCOP(=O)(Oc1cccc2c1C(C)=CC(C)(C)O2)SC(C)CC (centres unmarked) [compound 23]	100%	100%	100%	100%	100%	100%	—	—	—	—	—	—	—	—	—	—	—	100%	100%	100%	mortality at 500 ppm ([6]; Table 11, wettable powder as Formulation Example 7, read-out: Percent Mortality (%)): 100%
